Experimental data from US12661342B2, “Heteroaryl compounds and therapeutic uses thereof in conditions associated with the alteration of the activity of beta-glucocerebrosidase” (GT GAIN THERAPEUTICS SA, priority 2019, dated 2026).

biological target: T1, β-glucocerebrosidase (Homo sapiens, UniProt P04062, L483P); experiment: Enhancement of β-glucocerebrosidase activity measured in Gaucher disease fibroblasts (4-MU-β-D-glucopyranoside substrate, intact cells); format: cell-based; design: key: Increase in comparison with non-treated of >2.0 fold is shown as A; Increase in comparison with non-treated of >1.7-2.0 fold is shown as B; Increase in comparison with non-treated of 1.2-1.7 fold is shown as C; D means that no increase compared with non-treated cells was detected in this method; conditions: GBA fibroblasts bearing L444P (GM08760A, homozygous p.L444P); compound at concentrations between 6 and 50 μM; 4 days incubation
T1 construct: host or cells: human Gaucher disease patient fibroblasts GM08760A
T1 sequence (P04062 40-536 L483P): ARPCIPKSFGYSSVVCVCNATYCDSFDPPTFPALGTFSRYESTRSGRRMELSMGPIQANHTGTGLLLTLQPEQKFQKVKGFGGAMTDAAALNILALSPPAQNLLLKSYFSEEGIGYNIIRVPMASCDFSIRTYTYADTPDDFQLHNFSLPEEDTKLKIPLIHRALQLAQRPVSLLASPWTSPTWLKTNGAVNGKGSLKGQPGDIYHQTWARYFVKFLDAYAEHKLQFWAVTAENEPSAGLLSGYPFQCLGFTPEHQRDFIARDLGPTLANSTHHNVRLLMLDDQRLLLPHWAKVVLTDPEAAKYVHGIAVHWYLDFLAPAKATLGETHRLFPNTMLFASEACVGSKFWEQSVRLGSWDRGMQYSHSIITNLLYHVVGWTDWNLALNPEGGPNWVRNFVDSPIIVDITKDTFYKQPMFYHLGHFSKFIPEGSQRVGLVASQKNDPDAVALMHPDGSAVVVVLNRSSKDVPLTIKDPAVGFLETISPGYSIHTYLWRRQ
Procedure, shortened: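 Patient fibroblasts homozygous for p.L444P (GM08760A), grown in DMEM/10% FBS and exposed to compound for 4 days. Intact cells then given 4-MU-β-D-glucopyranoside in 0.1 M acetate pH 4, 1 h, 37 °C; stopped at pH 10.7, 4-MU fluorescence ex 340/em 460. Value is fold increase over untreated cells; binned at 6–50 μM.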

Compound	Range: increase in enzyme activity in comparison with non-treated cells (Enzyme activity assay for compounds of Examples 33-141)	Range: increase in enzyme activity in comparison with non-treated cells (Enzyme activity assay for exemplified compounds)
Nc1cc(Nc2ccccc2F)nc(C(=O)Nc2ccc3c(c2)OCCO3)c1 [Example 111, 4-Amino-N-(2,3-dihydrobenzo[b][1,4]dioxin-6-yl)-6-((2-fluorophenyl)amino)picolinamide]	A (Increase in comparison with non-treated of >2.0 fold is shown as A)	
CN(C(=O)c1cc(N)nc(Nc2ccccc2O)n1)C1Cc2ccccc2C1 [Example 10, 6-Amino-N-(2,3-dihydro-1H-inden-2-yl)-2-((2-hydroxyphenyl)amino)-N-methylpyrimidine-4-carboxamide]		C (Increase in comparison with non-treated of 1.2-1.7 fold is shown as C)
Nc1cc(C(=O)N2CCc3ccccc3C2)nc(Nc2ccccc2O)n1 [Example 35, (6-Amino-2-((2-hydroxyphenyl)amino)pyrimidin-4-yl)(3,4-dihydroisoquinolin-2(1H)-yl)methanone]	C (Increase in comparison with non-treated of 1.2-1.7 fold is shown as C)	
Nc1cc(Nc2ccccc2O)nc(C(=O)N2Cc3ccccc3C2)c1 [Example 104, (4-Amino-6-((2-hydroxyphenyl)amino)pyridin-2-yl)(isoindolin-2-yl)methanone]	C (Increase in comparison with non-treated of 1.2-1.7 fold is shown as C)	
COc1cccc(Nc2nc(N)cc(C(=O)N(C)c3ccccc3)n2)c1 [Example 7, 6-Amino-2-((3-methoxyphenyl)amino)-N-methyl-N-phenylpyrimidine-4-carboxamide]		D
Nc1nc(Nc2cccc(Br)c2)nc(C(=O)NC2CCc3ccccc3C2)n1 (stereo not drawn) [Example 19, 4-Amino-6-((3-bromophenyl)amino)-N-(1,2,3,4-tetrahydronaphthalen-2-yl)-1,3,5-triazine-2-carboxamide]		C (Increase in comparison with non-treated of 1.2-1.7 fold is shown as C)
CN(C(=O)c1cc(N)cc(Nc2ccccc2O)n1)c1ccccc1 [Example 110, 4-Amino-6-((2-hydroxyphenyl)amino)-N-methyl-N-phenylpicolinamide]	C (Increase in comparison with non-treated of 1.2-1.7 fold is shown as C)	
COc1ccccc1Nc1cc(N)cc(C(=O)N2Cc3ccccc3C2)n1 [Example 96, (6-(2-Methoxyphenylamino)-4-aminopyridin-2-yl)(isoindolin-2-yl)methanone]	C (Increase in comparison with non-treated of 1.2-1.7 fold is shown as C)	
Nc1cc(Nc2ccccc2F)nc(C(=O)N2Cc3ccccc3C2)c1 [Example 103, (6-(2-Fluorophenylamino)-4-aminopyridin-2-yl)(isoindolin-2-yl)methanone]	C (Increase in comparison with non-treated of 1.2-1.7 fold is shown as C)	
Nc1cc(Nc2ccccc2F)cc(C(=O)N2CCN(c3ccccc3)CC2)n1 [Example 62]	D	
COc1ccccc1Nc1cc(N)nc(C(=O)Nc2ccccc2)c1 [Example 53, 6-Amino-4-((2-methoxyphenyl)amino)-N-phenylpicolinamide]	C (Increase in comparison with non-treated of 1.2-1.7 fold is shown as C)	
Cc1cccc(NC(=O)c2cc(N)cc(Nc3cccc(F)c3)n2)c1.Cl [Example 136, 4-Amino-6-((3-fluorophenyl)amino)-N-(m-tolyl)picolinamide hydrochloride]	A (Increase in comparison with non-treated of >2.0 fold is shown as A)	
Nc1nc(Nc2ccccc2O)nc(C(=O)NC2CCc3ccccc3C2)n1 (stereo not drawn) [Example 126, 4-Amino-6-((2-hydroxyphenyl)amino)-N-(1,2,3,4-tetrahydronaphthalen-2-yl)-1,3,5-triazine-2-carboxamide]	C (Increase in comparison with non-treated of 1.2-1.7 fold is shown as C)	
COc1cccc(Nc2nc(N)c3c(n2)CCN(Cc2ccccc2)C3)c1.Cl [Example 31, 6-Benzyl-N2-(3-methoxyphenyl)-5,6,7,8-tetrahydropyrido[4,3-d]pyrimidine-2,4-diamine hydrochloride]		B (Increase in comparison with non-treated of >1.7-2.0 fold is shown as B)
Cl.Nc1cc(Nc2cccc(F)c2)nc(C(=O)Nc2ccccc2)c1 [Example 134, 4-Amino-6-((3-fluorophenyl)amino)-N-phenylpicolinamide hydrochloride]	A (Increase in comparison with non-treated of >2.0 fold is shown as A)	
COc1cccc(Nc2cc(N)cc(C(=O)Nc3ccccc3)n2)c1.Cl [Example 135, 4-Amino-6-((3-methoxyphenyl)amino)-N-phenylpicolinamide hydrochloride]	A (Increase in comparison with non-treated of >2.0 fold is shown as A)	
COc1ccccc1Nc1nc(N)nc(C(=O)NC2CCc3ccccc3C2)n1 (stereo not drawn) [Example 20, 4-Amino-6-((2-methoxyphenyl)amino)-N-(1,2,3,4-tetrahydronaphthalen-2-yl)-1,3,5-triazine-2-carboxamide]		C (Increase in comparison with non-treated of 1.2-1.7 fold is shown as C)
Nc1cc(C(=O)N2Cc3ccccc3C2)nc(Nc2ccccc2O)n1 [Example 8, (6-Amino-2-((2-hydroxyphenyl)amino)pyrimidin-4-yl)(isoindolin-2-yl)methanone]		C (Increase in comparison with non-treated of 1.2-1.7 fold is shown as C)
COc1ccccc1Nc1nc(N)c2c(n1)CN(Cc1ccccc1)CC2 [Example 28, 7-Benzyl-N2-(2-methoxyphenyl)-5,6,7,8-tetrahydropyrido[3,4-d]pyrimidine-2,4-diamine]		C (Increase in comparison with non-treated of 1.2-1.7 fold is shown as C)
Nc1cc(Nc2ccc(F)cc2O)cc(C(=O)Nc2ccccc2)n1 [Example 78, 6-Amino-4-((4-fluoro-2-hydroxyphenyl)amino)-N-phenylpicolinamide]	B (Increase in comparison with non-treated of >1.7-2.0 fold is shown as B)	
CN(C(=O)c1nc(N)nc(Nc2cccc(Br)c2)n1)c1ccccc1 [Example 18, 4-Amino-6-((3-bromophenyl)amino)-N-methyl-N-phenyl-1,3,5-triazine-2-carboxamide]		D
COc1ccccc1Nc1cc(N)cc(C(=O)Nc2ccccc2)n1 [Example 93, 4-Amino-6-((2-methoxyphenyl)amino)-N-phenylpicolinamide]	B (Increase in comparison with non-treated of >1.7-2.0 fold is shown as B)	
COc1ccccc1Nc1cc(N)cc(C(=O)NC2Cc3ccccc3C2)n1.Cl [Example 133, 4-amino-N-(2,3-dihydro-1H-inden-2-yl)-6-((2-methoxyphenyl)amino)picolinamide hydrochloride]	C (Increase in comparison with non-treated of 1.2-1.7 fold is shown as C)	
Nc1cc(Nc2cccnc2)nc(C(=O)NC2Cc3ccccc3C2)c1 [Example 102, 4-Amino-N-(2,3-dihydro-1H-inden-2-yl)-6-(pyridin-3-ylamino)picolinamide]	C (Increase in comparison with non-treated of 1.2-1.7 fold is shown as C)	
Nc1cc(C(=O)Nc2ccccc2)nc(Nc2ccccc2O)n1 [Example 11, 6-Amino-2-((2-hydroxyphenyl)amino)-N-phenylpyrimidine-4-carboxamide]		B (Increase in comparison with non-treated of >1.7-2.0 fold is shown as B)
Nc1cc(Nc2ccccc2Cl)cc(C(=O)NC2Cc3ccccc3C2)n1 [Example 72, 6-Amino-4-((2-chlorophenyl)amino)-N-(2,3-dihydro-1H-inden-2-yl)picolinamide]	D	
Nc1cc(Nc2ccccc2F)nc(C(=O)N2CCN(c3ccccc3)CC2)c1 [Example 48, (4-Amino-6-((2-fluorophenyl)amino)pyridin-2-yl)(4-phenylpiperazin-1-yl)methanone]	C (Increase in comparison with non-treated of 1.2-1.7 fold is shown as C)	
